RP-LC retention time data for 32 compounds are collected here from the METLIN SMRT retention time set (Domingo-Almenara et al. 2019).

The data set can be described thus: gradient 5% acetonitrile 3 min, to 50% in 2 min, to 85% in 15 min, held 3 min, 100 µL/min. The note with it: column: Zorbax Extend-C18 2.1 x 50 mm; eluents: water / acetonitrile, 0.1% formic acid. The procedure, abridged:
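The mobile phases were water and acetonitrile, each with 0.1% formic acid, pumped at 100 μL/min through a Zorbax Extend-C18 column (2.1 × 50 mm, 1.8 μm). Pure standards were injected as mixtures of ~100 molecules and detected by a quadrupole time-of-flight mass spectrometer in positive and negative ionization mode. Retention time came from computationally picked adduct peaks, each inspected by hand.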
In turn, `O=C(C1=CN(c2ccc3c(c2)OCCO3)c2cc(F)ccc2S1(=O)=O)N1CCOCC1` returned an RP-LC retention time of 750 s.
Under `O=C(N[C@H]1C[C@@H]2C[C@H]1CN2C(=O)c1ccc(Cl)s1)c1cccnc1` stands 659 s; under `CCOC(=O)c1ccc(NC(=O)CSc2cc(N3CCCC3)ncn2)cc1`, 828 s; under `O=C(c1nnn(-c2ccccc2Cl)c1-c1ccncc1)N1CCN(c2ccccn2)CC1`, 973 s.
In the case of `CCNC(=O)c1ccc2c(c1)n(Cc1ccccc1)c(=O)c1ccnn12` it was 774 s.
As for `CCOc1ccc(S(=O)(=O)N2CCC(C(=O)NCc3csc(-c4ccccc4)n3)CC2)cc1`, the RP-LC retention time is 978 s.
Under `CCCCC(=O)Nc1nc(-c2ccc(C)cc2C)cs1` stands 1100 s.
In the case of `COc1ccccc1CNC(=O)C1CCCN(C(=O)C2Sc3ccccc3NC2=O)C1` (configuration not stated) it was 736 s; in that of `CCOC(=O)c1cn(CC(=O)Nc2ccc(Br)cc2)c2nc(C)ccc2c1=O`, 821 s; in that of `Cc1ccc(NC(=O)c2cn(C)nc2S(=O)(=O)N2CCSCC2)cc1Cl`, 1080 s.
In turn, `CCOc1ccc(CN2CCC3(CCC3O)CC2)cc1OCC` (configuration not stated) gave an RP-LC retention time of 598 s.
In the case of `O=C(C1CCCN(c2ncnc3c2nc2n3CCCCC2)C1)N1CCN(c2ccc(Cl)cc2)CC1` (configuration not stated) it was 928 s; in that of `CCN1C(=O)c2ccccc2Oc2ccc(C(=O)NCc3ccco3)cc21`, 843 s.
In the case of `Cc1cccc(OCc2nc(CCN(C)C(=O)Nc3cc(F)ccc3F)no2)c1` it was 1000 s; in that of `Cc1nc2cc(-c3noc(-c4ccc(F)c(F)c4)n3)ccc2o1`, 1100 s; in that of `CN1c2ccc(Cl)cc2C(=O)NC12CCN(C(=O)NC1CCCCC1)CC2`, 818 s.
Under `Cc1ccccc1NC(=O)CSc1ccc(-n2nccc2C)nn1` stands 869 s; under `CC1CCCN(c2ccc(-c3csc(S(=O)(=O)N4CCCCC4)c3)nn2)C1` (configuration not stated), 817 s; under `Cc1cccc(N2CCN(C(=O)Cn3c(=O)c4nncn4c4ncccc43)CC2)c1C`, 791 s.
`CCc1ccccc1NC(=O)N1CCCC1c1nc(-c2ccccc2)no1` (configuration not stated) showed an RP-LC retention time of 987 s.
In the case of `CCCNC(=O)C1CCN(c2ccc(SCC(=O)Nc3ccccc3Br)nn2)CC1` it was 670 s.
Take `Cc1ccc(CN2CCC3(CC2)CC(O)(c2ccccn2)CCO3)o1` (configuration not stated): the RP-LC retention time came to 595 s.
Under `CCOc1ccc(CC(=O)NCC(=O)Nc2nc3ccccc3[nH]2)cc1OCC` stands 652 s.
Under `CCOc1ccccc1N1CCN(S(=O)(=O)c2nn(C)cc2C(=O)NC2CCCCC2)CC1` stands 1110 s; under `Cc1ccc(Cn2c(C)c3cnn(CC(=O)NCC4CCCO4)c(=O)c3c2C)cc1` (configuration not stated), 780 s.
Under `Cn1c(N2CCCC(C(=O)N3CCN(c4cccc(C(F)(F)F)c4)CC3)C2)cc(=O)n(C)c1=O` (configuration not stated) stands 831 s.
Compound `COc1ccc(OC)c(NC(=O)N(C)CCc2noc(COc3ccccc3F)n2)c1` had an RP-LC retention time of 932 s.
`Nc1ccc(/C=C/c2ccc3ncccc3c2)cc1` displayed an RP-LC retention time of 643 s.
Under `O=C(Nc1ccccc1[N+](=O)[O-])C(=O)N1CCN(Cc2ccc3c(c2)OCO3)CC1` stands 592 s; under `Cc1cc(CN2CCC(CNC(=O)c3ccc(S(=O)(=O)N(C)C)cc3)CC2)c(C)o1`, 574 s.
In the case of `CCN1C(=O)COc2ccc(-c3csc(NC(=O)c4ccccc4OC)n3)cc21` it was 1040 s; in that of `CCC(C)C(NC(=O)c1cccc(OC)c1)C(=O)Nc1nc2ccccc2[nH]1` (configuration not stated), 726 s.
